Experimental data published in patent publication US8513202B2, “Crystalline form of 1-(β-D-glucopyranosyl)-4-methyl-3-[5-(4-fluorophenyl)-2-thienylmethyl]benzene hemihydrate” (Mitsubishi Tanabe Pharma Corporation, priority 2006, dated 2013).

Test: stability of the crystalline form compared with the amorphous form
Type: physicochemical
Conditions: compared with the amorphous form of the compound of formula (I); test conditions not given

stability: more stable than the amorphous form
SMILES: Cc1ccc([C@@H]2O[C@H](CO)[C@@H](O)[C@H](O)[C@H]2O)cc1Cc1ccc(-c2ccc(F)cc2)s1 [1-(β-D-glucopyranosyl)-4-methyl-3-[5-(4-fluorophenyl)-2-thienylmethyl]benzene hemihydrate]
